Laboratory results from US6875748B2, “Compositions and methods for in vivo delivery of polynucleotide-based therapeutics” (Vical Incorporated, priority 2000, dated 2005).
Where “and” joins values, the source holds several entries; their conditions need not be identical. Equal values may be shown once. Read-outs that look alike come from different tables or passages of the source.

Assays:
mouse quadriceps muscle [1] = experiment: β-galactosidase-stained muscle fibers after i.m. injection of plasmid VR1412; type: in vivo; conditions: 50 μg VR1412, day 7, n=10
Method: For whole muscle staining, quadriceps were fixed for 3 hours at room temperature in 2% paraformaldehyde in PBS, washed 3 times for 20 min each in PBS and incubated for 18 hours at 37° C. in a solution containing 2 mM MgCl2, 5 mM potassium ferricferrocyanide and 1 mg/ml 5-bromo-4-chloro-3-indoyl-β-D-galactosidase (available from Life Technologies, Inc. (LTI), Gaithersberg, Md.) in PBS. After incubation, the muscles were washed 3 times for 10 min each in 3% dimethyl sulfoxide in PBS and stored in PBS at 4° C. until analysis. […] Sections were collected on 1% gelatin coated glass slides, brought to room temperature and stained for 2 hours at 37° C. in the same reagent as for whole mounts above except that the beta-galactosidase reagent concentration was 200 μg/ml. The sections were then counterstained with Harris hematoxylin in acetic acid, rinsed in tap water, dehydrated and mounted in Permount (Fisher, Fair Lawn, N.J.).
Individual muscle cells were examined for β-galactosidase expression as follows.
Whole quadriceps muscle groups were harvested on day 7. Muscles were snap frozen in OTC medium (n=10 muscles for each group). 10 micron cross-sections were stained with x-gal (substrate for β-gal). Fibers expressing β-gal (stained blue) were counted.

[2] = Osmolarity of the salt solutions; type: physicochemical; conditions: for Osm: 150 mM unless otherwise indicated
pH of the salt solutions = type: physicochemical; conditions: 150 mM unless otherwise indicated
influenza nucleoprotein [3] = conditions: 5 μg VR4700 days 0 and 21, 6 weeks
mouse quadriceps muscle [4] = experiment: Luciferase expression in mouse quadriceps muscle 7 days after i.m. injection of plasmid VR1223 in salt solutions; type: in vivo; parameters: lux: unit: ng/muscle; conditions: for lux: 7-day luciferase expression, VR1223; for luciferase expression, fold over saline: VR1223, day 7; for ng lux/muscle: reproducibility
mouse quadriceps muscle [5] = experiment: Hematocrit after i.m. injection of mouse erythropoietin plasmid (VR2901, VR2996); type: in vivo; conditions: 10 μg or 2.5 μg VR2901, four weeks
Method: Hematocrits were measured by centrifugation of blood obtained from the retro-orbital cavity of mice. Blood samples were collected in 75 μl heparinized capillary tubes and analyzed using HemaSTAT II microhematocrit centrifuge (Separation Technology, Inc., Altamonte Springs, Fla.).
The mice were monitored over time for serum hematocrit levels, which correlate with the expression of erythropoeitin.
The mice were monitored over four weeks for serum hematocrit levels, which correlate with the expression of erythropoeitin.
The mice were monitored at days 0, 7, 14, 21, and 28 for serum hematocrit levels, which correlate with the expression of erythropoeitin.
The mice were monitored at days 7, 14, and 28 for serum hematocrit levels, which correlate with the expression of erythropoeitin. Control serum levels were measured before any injections.

influenza nucleoprotein [6] = conditions: 9 weeks post-vaccination, versus saline
B16F10 tumor cells = experiment: Anti-tumor effect of i.m. mIFN-α plasmid VR4111 in mice bearing subcutaneous B16F10 tumors; type: in vivo, mouse
mouse quadriceps muscle [7] = experiment: Serum human IFN-ω after i.m. injection of plasmid VR4151; type: in vivo
Method: (§1) Muscle extracts were assayed for β-galactosidase and the serum was assayed for circulating levels of IFN-ω.

rectus femoris muscle = conditions: no agent
From the text: Two milliliters of DNA were delivered as 1-ml injections into each rectus femoris muscle. Following injection, cats were monitored at 7 day intervals for serum hematocrit levels, which correlate with the expression of erythropoeitin.

mouse quadriceps muscle [8] = experiment: β-galactosidase expression in mouse quadriceps muscle after i.m. injection of plasmid VR1418
Method: The luciferase content of the samples was calculated from Relative Light Units using a standard curve of purified firefly luciferase (Analytical Luminescence Laboratory, San Diego, Calif.; Cat. No. 2400), which was diluted in pooled extract from uninjected muscles to control for quenching. Luciferase values were expressed as ng luciferase per muscle. […] A standard curve, prepared in pooled extract from uninjected muscles, was included on each plate using the β-galactosidase enzyme standard included in the kit.
as §1
Quadriceps muscles were injected with 50 μl of each solution containing 10 μg of plasmid VR1418, and the muscles were tested for 7-day expression levels.

mouse quadriceps muscle [9] = experiment: Luciferase expression in mouse quadriceps muscle after i.m. injection of plasmid VR1255 with auxiliary agents; conditions: 50 μg VR1255 in 50 μl 150 mM sodium phosphate with added agents, day 7
mouse lung = experiment: Luciferase expression in mouse lung 3 days after intranasal instillation of VR1223 complexed with GAP-DLRIE/DOPE; type: in vivo; conditions: day 3; for luciferase expression in lung: 132 μg VR1223 + GAP-DLRIE/DOPE
[10] = listed as 50 mM Sodium Phosphate
[11] = listed as 100 mM Sodium Phosphate
[12] = listed as 150 mM Sodium Phosphate
[13] = listed as 50 mM sodium phosphate
[14] = listed as 100 mM sodium phosphate
[15] = listed as 150 mM sodium phosphate

## O=P(O)(O)O [Sodium Phosphate]
Mouse quadriceps muscle [1]
  β-galactosidase-positive myofiber cells: 186+/−43 myofiber cells/muscle section
[2]; [10]
  Osm: 83 mmol/kg
[2]; [11]
  Osm: 232 mmol/kg
[2]; [12]
  Osm: 308 mmol/kg
[2]; [13]
  osmolarity: 83 mmol/kg
[2]; [14]
  osmolarity: 270 mmol/kg
[2]; [15]
  osmolarity: 310 mmol/kg
pH of the salt solutions
  pH: 7.2
pH of the salt solutions; [10]
  pH: 7.2
pH of the salt solutions; [11]
  pH: 7.2
pH of the salt solutions; [12]
  pH: 7.2
β-galactosidase; 10 μg VR1412, four weeks
  mice with anti-β-galactosidase antibody: none of the mice
β-galactosidase; 10 μg VR1412, two weeks
  mice with anti-β-galactosidase antibody: none of the mice
Influenza nucleoprotein [3]
  serum anti-NP antibody titers: enhanced serum anti-NP antibody titers compared with saline solution
Mouse quadriceps muscle [4]; 50 μg VR1223 in 50 μl, day 7
  ng luciferase per muscle: 386 ng luciferase per muscle
Mouse quadriceps muscle [4]; 50 μg VR1223 in 50 μl, salts at 150 mM, day 7
  ng Lux/Muscle: 481 ng/Muscle
Mouse quadriceps muscle [4]; 80 mM, 100 mM, 150 mM and 200 mM sodium phosphate, p<0.05
  luciferase expression compared with saline (words): significantly higher than saline
Mouse quadriceps muscle [4]; Example 4, day 7
  luciferase in muscle, fold over saline: 4.8 fold
Mouse quadriceps muscle [4]; Example 4, run in parallel, day 7
  luciferase in muscle: 769 ng/muscle
Mouse quadriceps muscle [4]; Exp. #1 (highest)
  enhancement over saline: 7.3 fold
Mouse quadriceps muscle [4]; Exp. #9 (lowest)
  enhancement over saline: 2.5 fold
Mouse quadriceps muscle [4]; Table III-A
  lux: 481
Mouse quadriceps muscle [4]; Table III-A, listed as 50 mM Sodium Phosphate
  lux: 254
Mouse quadriceps muscle [4]; Table III-A, listed as 100 mM Sodium Phosphate
  lux: 270
Mouse quadriceps muscle [4]; Table III-A, listed as 150 mM Sodium Phosphate
  lux: 481
Mouse quadriceps muscle [4]; Table III-B, listed as 50 mM Sodium Phosphate
  lux: 254
Mouse quadriceps muscle [4]; Table III-B, listed as 100 mM Sodium Phosphate
  lux: 270
Mouse quadriceps muscle [4]; Table III-B, listed as 150 mM Sodium Phosphate
  lux: 481
Mouse quadriceps muscle [4]; [13]
  luciferase expression, fold over saline: 2.1 fold
Mouse quadriceps muscle [4]; [14]
  luciferase expression, fold over saline: 2.3 fold
Mouse quadriceps muscle [4]; [15]
  luciferase expression, fold over saline: 4.3 fold and 4 fold
Mouse quadriceps muscle [4]; all 9 experiments
  average enhancement over saline: 4.1 fold
Mouse quadriceps muscle [4]; average of all 9 experiments
  ng luciferase/muscle: 490 ng luciferase/muscle
Mouse quadriceps muscle [4]; Exp. #1
  ng lux/muscle: 362 ng lux/muscle
Mouse quadriceps muscle [4]; Exp. #9
  ng lux/muscle: 384 ng lux/muscle
Mouse quadriceps muscle [4]; salts at 150 mM, relative to saline, day 7
  Fold Saline: 4.0 Fold
Mouse quadriceps muscle [4]; sodium phosphate below 40 mM or above 300 mM
  luciferase expression compared with saline (words): equal to or lower than those seen with saline
Mouse quadriceps muscle [5]
  hematocrit versus plasmid DNA in saline: higher hematocrit levels
Influenza nucleoprotein [6]
  anti-NP specific CTL activity: statistically similar
B16F10 tumor cells; 27 days, VR4111
  tumor volume: 955 mm^3
B16F10 tumor cells; VR4111 100 μg i.m., up to 22 days
  tumor growth versus blank DNA controls: lower rate of tumor growth
B16F10 tumor cells; p<0.007, Kaplan-Meier
  survival versus blank DNA in saline: statistically significant survival difference
B16F10 tumor cells; to day 41, VR4111
  mice surviving: 4 out of 10
Mouse quadriceps muscle [7]; 50 μg VR4151, day 7
  serum IFN-ω levels: 0.35 ng ml serum
Mouse quadriceps muscle [7]; day 7
  serum IFN-ω levels, fold over saline: 2.5 fold
Rectus femoris muscle; group 3, 1 mg/ml DNA
  cats with elevated hematocrit: one cat
Rectus femoris muscle; groups 1 and 2, 5 and 3 mg/ml DNA
  cats with elevated hematocrit: No cats
Mouse quadriceps muscle [8]; 10 μg VR1418, day 7
  β-galactosidase in muscle: 9.8 ng/muscle
Mouse quadriceps muscle [8]; 10 μg VR1418, day 7, data not shown
  optimal molar concentration for β-galactosidase expression: 150 mM
Mouse quadriceps muscle [8]; day 7
  β-galactosidase in muscle, fold over saline: 3.3 fold
Mouse quadriceps muscle [9]
  Average μg luciferase muscle: 0.37 µg
Mouse lung; listed as 2.5 mM sodium phosphate
  luciferase expression in lung: 5.2 ng lux/lung
Mouse lung; [15]
  luciferase expression in lung: 0.22 ng lux/lung
Mouse lung
  luciferase expression in lung compared with water: enhanced compared with water, but not as much as with 2.5 mM sodium phosphate
  luciferase expression in lung, fold compared with water: 5.5 fold
